We go through 43 molecules from PubChem BioAssay (NCI).

Where “and” joins values, the source holds several entries; their conditions need not be identical. Equal entries are not always repeated.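 Interpolation was linear, between the two tested concentrations surrounding the appropriate level; five concentrations were tested over 48 hours in 96-well plates. GI50 marks 50% less growth. Definition used: TGI = concentration required for complete inhibition of growth.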 Where a SMILES comes first, the peptide text is derived from it. [ ]: non-standard residue; d: D form. The star is where a group is joined. Decanoyl = CCCCCCCCCC(=O)*; Leu(ol) = CC(C)C[C@H](N)CO; Iva = CC[C@](C)(N)C(=O)O; Aib = CC(C)(N)C(=O)O

This experiment deals with MDA-MB-468 breast. The experiment is described as follows: NCI anticancer screen, dose series, 48 h.

With `Cc1ccc(C(=O)/C(=C\c2ccc([N+](=O)[O-])cc2)S(=O)Cc2ccc(Cl)cc2)cc1` (stereo unspecified), the GI50 is 1.74 µM and the TGI amounted to 3.44 µM.
`COc1cc2nccc(Oc3ccc(NC(=O)Nc4cc(C)on4)c(Cl)c3)c2cc1OC`: the GI50 is 2.34 µM and 2.93 µM; the TGI was 8.09 µM and > 10 µM.
Take `C=C1C(=O)O[C@H]2[C@H]1CC/C(COC(=O)C(C)c1ccc(CC(C)C)cc1)=C\CC[C@@]1(C)O[C@@H]21` (stereo partly specified): the GI50 is 1.76 µM and the TGI is 3.79 µM.
Regarding `CCC(=O)Nc1ccc(C)c(-c2ccc(C(=O)NCC3CC3)cc2)c1`, the GI50 was 14.9 µM and the TGI was greater than 25 µM.
For `C[N+](C)(C)CC(=O)N/N=C(\C(=O)NC1=C(Cl)C(=O)c2ccccc2C1=O)C(C#N)c1nc(-c2ccc([N+](=O)[O-])cc2)cs1` (stereo unspecified) the same measures were 3.89 µM and 16 µM.
For `Nc1ccc(-c2cccs2)cc1NC(=O)c1ccc(CCCC(=O)Nc2ccc(C3CC3N)cc2)cc1` (stereo unspecified) the same measures were 1.9 µM and 4.37 µM.
For `CCOC(=O)C#Cc1c(C(=O)OCC)nnn1Cc1ccc([N+](=O)[O-])cc1` the same measures were 1.96 µM and 4.4 µM.
Regarding `Cc1cc2c(C(N)=O)c(N)n(-c3c(C)ccc(O)c3C)c2nc1C`, the GI50 is 8.69 µM and the TGI came out at 29.7 µM.
For `O=[N+]([O-])c1cc(C(F)(F)F)ccc1Sc1ccc(C(F)(F)F)cc1[N+](=O)[O-]` the same measures were 3.67 µM and greater than 100 µM.
For `CC(CN(C)C)Oc1ccccc1NC1=C(Cl)C(=O)C(Nc2ccccc2OC(C)CN(C)C)=C(Cl)C1=O` (stereo unspecified) the same measures were 0.163 µM and 0.328 µM.
For `CCCCCCCCCC(=O)N[C@@](C)(CC)C(=O)N1CCC[C@H]1C(=O)N[C@@H](CC(C)C)C(=O)N[C@@](C)(CC)C(=O)N[C@@H](CCC(N)=O)C(=O)N[C@H](CCC(N)=O)C(=O)NC(C)(C)C(=O)NC(C)(C)C(=O)N[C@@H](CCC(N)=O)C(=O)N[C@H](CC(C)C)C(=O)N[C@H](CO)CC(C)C` (Decanoyl-[Iva]PL[Iva]Q[dQ][Aib][Aib]Q[dL][Leu(ol)]), the GI50 was 1.77 µM and the TGI is 3.49 µM.
For `CC(=O)O[C@H]1[C@@H]2OC(=O)C(CSc3ccccc3)[C@@H]2C[C@H]2O[C@]2(C)CC/C=C(\C)CCC[C@@H]1C` (stereo partly specified), the GI50 was 1.46 µM and the TGI turned out to be 3.62 µM.
For `CCn1c(-c2nonc2N)nc2c(C#CC(C)(C)O)ncc(OC[C@H]3CCCNC3)c21` the same measures were 0.0872 µM and 18.9 µM.
In the case of `CCOC(=O)c1ccc(NC2=C(Cl)C(=O)c3nc(C)ccc3C2=O)cc1`, the GI50 was 1.66 µM and the TGI was determined as 3.54 µM.
For `COC(=O)c1ccc(NC2=C(Cl)C(=O)C(C)=C(C)C2=O)cc1` the same measures were 1.49 µM and 3.1 µM.
For `CC(=[N-])N1CCC[C@@H](Nc2c3ccccc3nc3ccccc23)C1.[Cl][Pt].[NH-]CCC[NH-]` the same measures were 0.128 µM and 0.901 µM.
In the case of `C/C(O)=C(\C#N)C(=O)Nc1ccc(C(F)(F)F)cc1`, the GI50 is 37.2 µM and the TGI was greater than 100 µM.
For `Oc1c(Cl)cc(Cl)cc1C(c1cc(Cl)cc(Cl)c1O)C(Cl)(Cl)Cl` the same measures were 2.17 µM and 7.63 µM.
For `Cc1ccc(NC(=O)CSc2nnc3n(Cc4ccccc4)c(=O)c4c(C)c(C(N)=O)sc4n23)cc1`, the GI50 was 18.6 µM and the TGI was greater than 100 µM.
For `CC([C@H]1CCC2C3CCC4C[C@@H](N)CC[C@]4(C)C3CC[C@@]21C)N(C)C` (stereo partly specified), the GI50 was 1.57 µM and the TGI was 4.83 µM.
For `O=C1C=CC(=O)N1c1cccc(N2C(=O)C=CC2=O)c1` the same measures were 1.88 µM and 3.99 µM.
For `O=C(O)c1c(=O)cccc2ssc12` the same measures were 2.14 µM and 4.38 µM.
For `O=C1/C(=C/c2ccc(Cl)cc2)CCC/C1=C\c1ccc(Cl)cc1` the same measures were 3.08 µM and 9.21 µM.
Regarding `Cc1ccc(NS(=O)(=O)c2cccc(C#N)c2)c2[nH]cc(C#N)c12`, the GI50 was 4.44 µM and the TGI turned out to be 58.2 µM.
For `CCc1ccc(C(=Nc2ccc(N(C)C(=O)CN3CCN(C)CC3)cc2)c2c(O)[nH]c3ccc(C(=O)OC)cc23)cc1` the same measures were 0.73 µM and 2.35 µM.
For `CC1=C(C(=O)Nc2cc(Cl)c3[nH]ncc3c2)C(c2ccc(C(F)(F)F)cc2)CC(=O)N1` (stereo unspecified) the same measures were 8.02 µM and greater than 25 µM.
On to `Cc1cc(-c2ccccn2)cc(C)c1/C=C/c1cncc(-c2nn[nH]n2)c1`, for which the GI50 was greater than 25 µM and the TGI is greater than 25 µM.
As to `CN1CCN(c2ccc(NC(=O)c3cncnc3Nc3ccc(OCc4ccccn4)c(Cl)c3)cc2)CC1`, the GI50 is 3.88 µM and the TGI amounted to 9.39 µM.
Consider `CC1(N)CCN(c2cnc(-c3cccc(Cl)c3Cl)c(N)n2)CC1`, for which the GI50 was 2.58 µM and the TGI came to 17.2 µM.
Regarding `COc1cc(-c2csc(NC(=O)Nc3ccc(C(F)(F)F)cc3)n2)cc(OC)c1OC`, the GI50 was 1.72 µM and the TGI came out at 5.71 µM.
For `O=C(N/N=C/c1ccc(O)cc1O)c1cccc(Nc2ccnc(C(F)(F)F)c2)c1` the same measures were 0.626 µM and greater than 58.3 µM.
For `O=C(/C=C/C12c3ccccc3C(c3ccccc31)C1C(=O)NC(=O)C12)c1ccc(F)cc1` (stereo unspecified) the same measures were 1.99 µM and 4.1 µM.
For `CCCN(CCC)c1ccc(/C=N/NC(=O)c2cccnc2)c(OC)c1` the same measures were 6.22 µM and 58.9 µM.
For `C/C(=C\c1cc(C(F)(F)F)n(-c2ccc(N)cc2)n1)[C@@H]1C[C@@H]2O[C@]2(C)CCC[C@H](C)[C@H](O)[C@@H](C)C(=O)C(C)(C)[C@@H](O)CC(=O)O1`, the GI50 is 0.0336 µM and the TGI stood at 0.231 µM.
For `Clc1ccccc1CNc1c2ccccc2nc2ccccc12` the same measures were 1.12 µM and 3.04 µM.
For `CC1(C)NCCC[C@]2(C)[C@H]3CC[C@@H]4[C@H]5[C@H](C(=O)/C=C/c6ccccn6)CC[C@]5(CO)CC[C@@]4(C)[C@]3(C)CC[C@@H]12` the same measures were 2.08 µM and 4.77 µM.
For `OCCNc1nc(Nc2ccc(Cl)c(Cl)c2)nc2ccccc12` the same measures were 1.83 µM and 5.3 µM.
For `Oc1ccc(C2c3ccccc3Oc3ccccc32)c2cccnc12`, the GI50 was 0.644 µM and the TGI came to 4.53 µM.
For `N#C/C(=C\c1ccc(Br)cc1)n1nnc2cc(Cl)c(Cl)cc21` the same measures were 2.15 µM and 5.13 µM.
For `COc1ccc2c(c1)C(=O)/C(=C/c1ccc([N+](=O)[O-])o1)O2` the same measures were 0.818 µM and 2.56 µM.
With `NS(=O)(=O)NCCNc1nonc1C(=Nc1ccc(F)c(Br)c1)NO`, the GI50 is 23.5 µM and the TGI is 76.5 µM.
With `C=C(CO)[C@@H]1CC[C@]2(COC3CCCCO3)CC[C@]3(C)[C@H](CC[C@@H]4[C@@]5(C)C=C(C=O)C(=O)C(C)(C)[C@@H]5CC[C@]43C)[C@@H]12` (stereo partly specified), the GI50 is 0.244 µM and the TGI came to 0.665 µM.
For `Cc1cc(N2CCOCC2)nc(N(CCCNc2ccnc3cc(Cl)ccc23)Cc2ccco2)n1` the same measures were 2.21 µM and 7.33 µM.
